This note sets out measurements from patent US20260078119A1, “DEGRADER COMPOUNDS AND USES THEREOF” (Bristol-Myers Squibb Company, priority 2024, published 2026).

The subject of one experiment is CAL-51 cells. Description: CAL-51 Cell Proliferation Assay. The settings on record: for EC50: Homo sapiens, 120 hours incubation, 10-point dose response, 4-fold dilutions starting at 10 μM, Cell-Titer-Glo, read-out: CAL-51 Prolif EC50; for CAL-51 Prolif Ymin: minimal percent of DMSO control observed in the concentrations tested (Ymin-obs), 120 hours. It is filed as cell-based. An excerpt: CAL-51 cells were obtained from Bristol Myers Squibb internal cell banks (originally sourced from DSMZ-German Collection of Microorganisms and Cell Cultures GmbH, Germany) and cultured in RPMI complete media (RPMI-1640, 10% Fetal Bovine serum, 1× Antibiotic-Antimycotic, and 1× Non-Essential Amino Acids). Compounds were dispensed into 384-well plates using an acoustic dispenser (Beckman Coulter Life Sciences, Carlsbad, CA) in duplicate with 14 compounds on each plate. For each compound, a 10-point dose response was printed at 4-fold dilutions starting at 10 μM. The DMSO concentration was kept constant for a final assay concentration of 0.1% per well assuming 50 uL final media volume. Compound plates were sealed and frozen at −20° C. until use.
For each assay batch, compound plates were thawed and allowed to reach room temperature, and cells were seeded at 350 cells per well in 50 μl complete RPMI media. After 120 hours of incubation at 37° C. and 5% CO2, cells were lysed by addition of 25 μL of Cell-Titer-Glo Reagent (Promega Corporation, Madison, WI), as per manufacturer's instructions, protected from light, shaken for 20 minutes, and total luminescence read by a CLARIOstar Plus plate reader (BMG LabTech, Cary, NC). Total luminescence signal is linearly correlated with cell number remaining in the well.
Luminescence data was processed per plate by subtracting reagent-only “blank” well luminescence from all measured values and calculating a percent of DMSO control value for each treatment well. Then, to determine the half-maximal effective concentration (EC50) values for cell growth inhibition, a four parameter logistic model was fit to the data for each DMSO-normalized compound: Sigmoidal Dose-Response Model: (FIT=(A+((B−A)/1+((C/x)^D)))) where C is the inflection point (EC50), D is the Hill slope, and A and B are the low and high limits of the fit respectively. The lower limit of the fit (value A) is referred to as Ymin-calculated. The minimal percent of DMSO control that is observed in the concentrations tested for each compound is labeled as “Ymin-obs”, and was recorded and reported in the tables. Sigmoidal fit curves were processed and evaluated using Dotmatics Atlas (Insightful Science, LLC, Boston, MA).

The next experiment deals with T1, FAK (Homo sapiens, UniProt Q05397).
T1 construct: homozygous knock-in of a HiBiT tag (Promega Corporation, Madison, WI) to the C-terminus of the FAK gene in its natural genomic locus; endogenous in cells; host or cells: JHH-4-FAK-HiBiT clone d01 (CRISPR-Cas9 knock-in at the endogenous locus)
T1 sequence (Q05397 whole entry): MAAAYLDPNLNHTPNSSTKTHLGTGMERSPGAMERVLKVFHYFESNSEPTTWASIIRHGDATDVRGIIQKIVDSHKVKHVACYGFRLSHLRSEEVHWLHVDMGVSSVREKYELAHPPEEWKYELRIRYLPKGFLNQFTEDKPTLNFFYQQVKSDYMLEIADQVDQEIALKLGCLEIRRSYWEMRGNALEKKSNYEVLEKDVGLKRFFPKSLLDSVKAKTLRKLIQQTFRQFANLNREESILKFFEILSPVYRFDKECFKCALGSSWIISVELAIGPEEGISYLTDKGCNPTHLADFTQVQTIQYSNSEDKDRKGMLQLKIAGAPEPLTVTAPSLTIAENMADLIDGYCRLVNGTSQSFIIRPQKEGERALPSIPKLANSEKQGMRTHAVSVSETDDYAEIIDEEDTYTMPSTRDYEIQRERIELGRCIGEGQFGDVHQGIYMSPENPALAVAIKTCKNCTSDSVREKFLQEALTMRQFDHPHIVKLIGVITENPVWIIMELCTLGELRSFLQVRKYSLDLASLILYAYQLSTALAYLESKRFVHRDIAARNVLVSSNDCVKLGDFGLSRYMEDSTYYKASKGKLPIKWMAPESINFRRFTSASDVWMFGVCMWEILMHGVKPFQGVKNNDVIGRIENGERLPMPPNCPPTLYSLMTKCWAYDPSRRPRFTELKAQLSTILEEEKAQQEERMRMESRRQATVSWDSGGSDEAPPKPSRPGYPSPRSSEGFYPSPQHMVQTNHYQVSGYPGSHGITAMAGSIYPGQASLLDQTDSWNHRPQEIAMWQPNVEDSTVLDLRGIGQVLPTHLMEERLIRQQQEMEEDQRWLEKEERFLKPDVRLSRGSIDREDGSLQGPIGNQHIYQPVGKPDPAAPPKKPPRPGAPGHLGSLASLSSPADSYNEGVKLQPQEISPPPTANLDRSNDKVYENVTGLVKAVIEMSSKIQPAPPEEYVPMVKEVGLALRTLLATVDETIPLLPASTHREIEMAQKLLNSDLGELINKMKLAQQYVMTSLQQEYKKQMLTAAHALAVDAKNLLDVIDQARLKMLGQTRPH
The experiment in a line: FAK-HiBiT Degradation Assay. The class given is cell-based. The conditions noted are these: for DC50: JHH-4-FAK-HiBiT clone d01 cells, two hours incubation, 10-point dose response, 3-fold dilution starting at 1 μM, Nano-Glo HiBiT luminescence, read-out: FAK HiBiT EC50; for FAK HiBiT Ymin: lower limit of the four parameter fit (value A), Ymax derived using DMSO control, JHH-4-FAK-HiBiT cells, two hours. The source says: To generate JHH-4-FAK-HiBiT cells for the FAK degradation assay, JHH-4 cells (Japanese Collection of Research Biosources Cell Bank, Japan) were transfected with ribonucleoprotein reagents to introduce, by CRISPR-Cas9 editing, the homozygous knock-in of a HiBiT tag (Promega Corporation, Madison, WI) to the C-terminus of the FAK gene in its natural genomic locus. Clonal cell populations were established by expanding single cells after CRISPR-Cas9 editing, with a clonal cell line named JHH-4-FAK-HiBiT clone d01 confirmed by next generation DNA sequencing to contain the expected HiBiT edited FAK gene and was selected for FAK degradation screening. Cells were selected and maintained in complete DMEM media (DMEM, 10% Heat Inactivated FBS, and Non-Essential Amino Acids at 37° C. and 5% CO2). Cells were passaged every 3-4 days by reseeding 0.5×10^6 cells in a T75 flask.
Cells were dispensed into 384-well white plates (Corning #3570, NY) that were pre-spotted with compounds using an acoustic dispenser (Echo acoustic transfer system, Beckman Coulter Life Sciences, Carlsbad, CA) as a 10-point dose response curve with a 3-fold dilution starting at 1 μM and including a DMSO control. Twenty-five microliters of media containing 2000 JHH-4-FAK-HiBiT Clone d01 cells was dispensed per well. Assay plates were incubated at 37° C. with 5% CO2 for two hours. After incubation, 25 μL of Nano-Glo HiBiT Lytic Reagent Working Solution (Promega Corporation, Madison, WI) was added to each well and incubated at room temperature for 10 minutes protected from light. After 10 minutes, luminescence was read on a PHERAstar luminometer (BMG Labtech, Cary, NC).
To determine the half-maximal effective concentration (EC50) values for FAK-HiBIT degradation, a four parameter logistic model was used: (Sigmoidal Dose-Response Model)(FIT=(A+((B−A)/1+((C/x)^D)))) where C is the inflection point (EC50), D is the Hill slope, and A and B are the low and high limits of the fit respectively). The lower limit of the fit (value A) is referred to as Ymin. The maximum limit constraint, Ymax, was derived using DMSO control. The curves were processed and evaluated using Dotmatics Atlas (Insightful Science, LLC, Boston, MA).

Each structure is given as a SMILES string.

A word on the EC50: it is the concentration that produces a half-maximal response. Consider `O=C1CC[C@H](N2Cc3cc(Cn4ncc5c(-c6ncc(F)cc6F)cc(N6CC[C@H](O)C6)nc54)ccc3C2=O)C(=O)N1` [Example 123, (3S)-3-(5-{[4-(3,5-difluoropyridin-2-yl)-6-[(3S)-3-hydroxypyrrolidin-1-yl]-1H-pyrazolo[3,4-b]pyridin-1-yl]methyl}-1-oxo-2,3-dihydro-1H-isoindol-2-yl)piperidine-2,6-dione], for which, in the experiment on CAL-51 cells, the EC50 worked out at 28.3 nM and the “CAL-51 Prolif Ymin” value is on record as 78.23. Besides, at FAK, the DC50 is 109 nM and the “FAK HiBiT Ymin” value is on record as 45.54.

`CCOc1cnc(-c2cc(N3CC(F)C3)nc3c2cnn3Cc2ccc3c(c2)CN([C@H]2CCC(=O)NC2=O)C3=O)c(C(F)(F)F)c1` [Example 32, (3S)-3-[5-({4-[5-ethoxy-3-(trifluoromethyl)pyridin-2-yl]-6-(3-fluoroazetidin-1-yl)-1H-pyrazolo[3,4-b]pyridin-1-yl}methyl)-1-oxo-2,3-dihydro-1H-isoindol-2-yl]piperidine-2,6-dione]: in the experiment on CAL-51 cells, the EC50 came to 0.44 nM and the “CAL-51 Prolif Ymin” value was 9.16. In addition, on FAK, the DC50 turned out to be 0.82 nM and the “FAK HiBiT Ymin” value turned out to be 9.44.

For the compound `O=C1CCC(N2Cc3cc(Cn4ncc5c(-c6ncc(C(F)(F)F)cc6Cl)cc(N6CC(F)C6)nc54)cc(F)c3C2=O)C(=O)N1` (stereo not drawn) [Example 33, 3-[5-({4-[3-chloro-5-(trifluoromethyl)pyridin-2-yl]-6-(3-fluoroazetidin-1-yl)-1H-pyrazolo[3,4-b]pyridin-1-yl}methyl)-7-fluoro-1-oxo-2,3-dihydro-1H-isoindol-2-yl]piperidine-2,6-dione], in the experiment with CAL-51 cells, the concentration giving a half-maximal response (EC50) was found to be 0.51 nM and the “CAL-51 Prolif Ymin” value came to 26.78. Also, at FAK, the DC50 is 0.91 nM and the “FAK HiBiT Ymin” value is listed as 5.36.

Regarding `COc1cc(F)cnc1-c1cc(N2CC(F)C2)nc2c1cnn2Cc1ccc2c(c1)CN(C1CCC(=O)NC1=O)C2=O` (stereo not drawn) [Example 130, 3-(5-{[4-(5-fluoro-3-methoxypyridin-2-yl)-6-(3-fluoroazetidin-1-yl)-1H-pyrazolo[3,4-b]pyridin-1-yl]methyl}-1-oxo-2,3-dihydro-1H-isoindol-2-yl)piperidine-2,6-dione], in the experiment on CAL-51 cells, the EC50 worked out at 3900 nM and the “CAL-51 Prolif Ymin” value is on record as 76.29. In addition, at FAK, the DC50 is at least 1000 nM and the “FAK HiBiT Ymin” value came out at 84.84.

As to `O=C1CCC(N2Cc3cc(Cn4ncc5c(-c6ncccc6Cl)c(Cl)c(N6CC(F)C6)nc54)ccc3C2=O)C(=O)N1` (stereo not drawn) [Example 38, 3-(5-{[5-chloro-4-(3-chloropyridin-2-yl)-6-(3-fluoroazetidin-1-yl)-1H-pyrazolo[3,4-b]pyridin-1-yl]methyl}-1-oxo-2,3-dihydro-1H-isoindol-2-yl)piperidine-2,6-dione], in the experiment with CAL-51 cells, the EC50 came out at 0.48 nM and the “CAL-51 Prolif Ymin” value was found to be 21.89. Moreover, at FAK, the DC50 worked out at 1.09 nM and the “FAK HiBiT Ymin” value is 8.19.

With `O=C1CC[C@@H](N2Cc3cc(Cn4ncc5c(-c6ncc(C(F)(F)F)cc6Cl)cc(N6CC(F)C6)nc54)ccc3C2=O)C(=O)N1` (single isomer, unassigned) [Example 87], in the experiment with CAL-51 cells, the EC50 amounted to 2.17 nM and the “CAL-51 Prolif Ymin” value is listed as 38.15. Moreover, at FAK, the DC50 was 13 nM and the “FAK HiBiT Ymin” value is 5.32.

Regarding `O=C1CCC(N2Cc3cc(Cn4cnc5c(-c6ccc(C(F)(F)F)cc6Cl)cc(N6CC(F)C6)nc54)ccc3C2=O)C(=O)N1` (stereo not drawn) [Example 19, 3-(5-((7-(2-chloro-4-(trifluoromethyl)phenyl)-5-(3-fluoroazetidin-1-yl)-3H-imidazo[4,5-b]pyridin-3-yl)methyl)-1-oxoisoindolin-2-yl)piperidine-2,6-dione], in the experiment on CAL-51 cells, the half-maximal effective concentration (EC50) was found to be 0.38 nM and the “CAL-51 Prolif Ymin” value is 23.48. Moreover, at FAK, the DC50 is 0.86 nM and the “FAK HiBiT Ymin” value was 8.55.

For the compound `CC(C)Nc1nc2c(cnn2Cc2ccc3c(c2)CN([C@H]2CCC(=O)NC2=O)C3=O)c(-c2ncc(F)cc2Cl)c1F` (single isomer, unassigned) [Example 9], in the experiment on CAL-51 cells, the EC50 was found to be 0.46 nM and the “CAL-51 Prolif Ymin” value came to 22.89. On FAK, the DC50 is 0.55 nM and the “FAK HiBiT Ymin” value turned out to be 9.43.

Turning to `O=C1CC[C@H](N2Cc3cc(Cn4ncc5c(-c6ncc(Cl)cc6F)cc(N6CC[C@H](O)C6)nc54)ccc3C2=O)C(=O)N1` [Example 141, (3S)-3-(5-{[4-(5-chloro-3-fluoropyridin-2-yl)-6-[(3S)-3-hydroxypyrrolidin-1-yl]-1H-pyrazolo[3,4-b]pyridin-1-yl]methyl}-1-oxo-2,3-dihydro-1H-isoindol-2-yl)piperidine-2,6-dione], on FAK, the DC50 came out at 9 nM and the “FAK HiBiT Ymin” value is 53.

In the case of `CC(C)Nc1cc(-c2ncc(C#N)cc2Cl)c2cnn(Cc3ccc4c(c3)CN(C3CCC(=O)NC3=O)C4=O)c2n1` (stereo not drawn) [Example 103, 5-chloro-6-(1-{[2-(2,6-dioxopiperidin-3-yl)-1-oxo-2,3-dihydro-1H-isoindol-5-yl]methyl}-6-[(propan-2-yl)amino]-1H-pyrazolo[3,4-b]pyridin-4-yl)pyridine-3-carbonitrile], at FAK, the DC50 worked out at 30.5 nM and the “FAK HiBiT Ymin” value came out at 13.98.

Take `CC(C)Nc1cc(-c2ncc(C#N)cc2F)c2cnn(Cc3ccc4c(c3)CN(C3CCC(=O)NC3=O)C4=O)c2n1` (stereo not drawn) [Example 137, 6-(1-{[2-(2,6-dioxopiperidin-3-yl)-1-oxo-2,3-dihydro-1H-isoindol-5-yl]methyl}-6-[(propan-2-yl)amino]-1H-pyrazolo[3,4-b]pyridin-4-yl)-5-fluoropyridine-3-carbonitrile]: at FAK, the DC50 is at least 1000 nM and the “FAK HiBiT Ymin” value turned out to be 81.91.

As for `CN(C)c1nc(-c2ccc(C#N)cc2Cl)c2ccn(Cc3ccc4c(c3)CN(C3CCC(=O)NC3=O)C4=O)c2n1` (stereo not drawn) [Example 27, 3-chloro-4-(2-(dimethylamino)-7-((2-(2,6-dioxopiperidin-3-yl)-1-oxoisoindolin-5-yl)methyl)-7H-pyrrolo[2,3-d]pyrimidin-4-yl)benzonitrile], at FAK, the DC50 was 8.68 nM and the “FAK HiBiT Ymin” value is given as 2.64.

For `N#Cc1cnc(-c2cc(N3CCC3)nc3c2cnn3Cc2ccc3c(c2)CN(C2CCC(=O)NC2=O)C3=O)c(F)c1` (stereo not drawn) [Example 84, 6-[6-(azetidin-1-yl)-1-{[2-(2,6-dioxopiperidin-3-yl)-1-oxo-2,3-dihydro-1H-isoindol-5-yl]methyl}-1H-pyrazolo[3,4-b]pyridin-4-yl]-5-fluoropyridine-3-carbonitrile], on FAK, the DC50 was determined as 10.3 nM and the “FAK HiBiT Ymin” value is 19.19.
